In paper PMC9115111, “Metalloprotease Gp63-Targeting Novel Glycoside Exhibits Potential Antileishmanial Activity” (Frontiers in Cellular and Infection Microbiology, 2022):

Tests used:
[1] = test system: L. donovani promastigotes (AG83 strain); test: LDH cytotoxicity assay on promastigotes, AG83 strain; type: cell-based, Leishmania donovani; conditions: Leishmania donovani; Table 1; activity against promastigotes
Method: Promastigote forms of L. donovani (MHOM/IN/1983/AG83) were cultured at 26°C in M199 (GIBCO, India), pH 7.4, supplemented with 10% (v/v) inactivated fetal bovine serum (FBS, GIBCO, India) and 0.02 mg/ml gentamycin (Life Technologies, USA). The clinical isolate of PKDL, BS12, was obtained as a gift from Prof. Mitali Chatterjee [Department of Pharmacology, Institute of Postgraduate Medical Education and Research (IPGMER), Kolkata, India]. BS12 was routinely cultured at 22°C in M199 (GIBCO, India) with 100 U/ml penicillin-streptomycin (Gibco, Invitrogen, Thermo Fisher Scientific, NY, USA), 8 μM hemin (4 mM stock made in 50% triethanolamine) (Sigma, USA), 25 mM 4-(2-hydroxyethyl)-1-piperazineethanesulfonic acid (HEPES), supplemented with 10% heat-inactivated FBS (GIBCO, India). Cultures were maintained between 10^6 and 10^7 cells/ml for continuous exponential growth. In addition, 1 × 10^6 cells/ml parasite count was constantly maintained for all the experiments ([Ramu et al., 2017]).
(§1) All the compounds were dissolved in dimethyl sulfoxide (DMSO) (Sigma-Aldrich) for 1 mM stock solution and were screened against promastigotes at a concentration of 5 µM. For Glycosides (Gly) 2, 6, and 8, a range of concentrations starting from 100 nM to 100 µM were screened against promastigote forms of parasite and mammalian cells. Parasites (AG83 and PKDL strain) treated with amphotericin B (3 µg/ml) (Sigma-Aldrich) were maintained as the positive control.
(§2) AG83 strain of L. donovani were exposed to various Gly compound concentrations (100 nM–100 µM) in a 96-well microtiter plate (100 µl/well volume) and were incubated for 72 h at 26°C. Finally, lactate dehydrogenase (LDH) cytotoxic assay was performed as per standard protocol (CytoTox 96 Non-Radioactive Cytotoxicity Assay-Promega, USA). The percent cytotoxicity of test compounds was calculated by normalizing with amphotericin B as 100%. Further percentage growth inhibition was calculated using the formula:
% Growth Inhibition = Gly treated LDH activity- Spontaneous LDH activity
/Maximum LDH activity- Spontaneous LDH activity * 100
As per the formula, the spontaneous LDH Activity = activity of the untreated cells and the maximum LDH activity = activity of the amphotericin B-treated cells. IC50 value for Gly2, 6, and 8 treated was generated for AG83 and PKDL strain of L. donovani using sigmoidal dose–response model with nonlinear regression tool ([Ramu et al., 2017]).

[2] = test system: promastigotes of clinical isolate of PKDL strain, BS12 of L. donovani; test: LDH cytotoxicity assay on promastigotes of clinical PKDL isolate BS12; type: cell-based; conditions: Leishmania donovani, LDH assay 72 h
Method: Promastigote forms of L. donovani (MHOM/IN/1983/AG83) were cultured at 26°C in M199 (GIBCO, India), pH 7.4, supplemented with 10% (v/v) inactivated fetal bovine serum (FBS, GIBCO, India) and 0.02 mg/ml gentamycin (Life Technologies, USA). The clinical isolate of PKDL, BS12, was obtained as a gift from Prof. Mitali Chatterjee [Department of Pharmacology, Institute of Postgraduate Medical Education and Research (IPGMER), Kolkata, India]. […]
as §2, with “Finally, lactate dehydrogenase (LDH) cytotoxic assay was performed as per standard protocol (CytoTox 96 Non-Radioactive Cytotoxicity Assay-Promega, USA).” left out, “formula: […]” for “formula:”
We further evaluated the effect the Gly2 on the clinical isolate of PKDL strain, BS12 of L. donovani ([Sengupta et al., 2019]). […] Along with Gly2, we also evaluated the cytotoxic effects of 12 compounds on L. donovani promastigotes derived from clinical isolates of PKDL strain at 5 µM ( Supplementary Figure S2 ).

[3] = MTT cell viability assay on macrophages; type: cell-based, murine; conditions: mouse, J774.A1 macrophage cells; Table 1; macrophages
Method: (§3) The J774.A1 murine macrophage cells were grown in Roswell Park Memorial Institute (RPMI) 1640 medium in the presence of 10% (v/v) FBS and 100 U/ml penicillin−100 µg/ml streptomycin (Gibco, Invitrogen, Thermo Fisher Scientific, NY, USA) at 37°C (humidified) and 5% CO2. […] Madin–Darby canine kidney (MDCK) cells were obtained from the National Centre for Cell Science, Pune, India. MDCK cells were derived from the kidney tissue of an adult female Cocker Spaniel. These were grown in Dulbecco’s modified Eagle’s minimal essential medium (DMEM) in the presence of 10% (v/v) FBS and 100 U/ml penicillin−100 µg/ml streptomycin (Gibco, Invitrogen, Thermo Fisher Scientific, NY, USA) at 37°C (humidified) and 5% CO2 ([Ayana et al., 2018]; [Shivappagowdar et al., 2021]).
as §1
(§4) To evaluate the cytotoxic effects of 12 compounds on L. donovani promastigotes, LDH assay was performed. This assay involves the reduction of tetrazolium salts to formazan during LDH-mediated catalysis of lactate to pyruvate, which can be detected at […]. Rate of formazan formation is proportional to the release of LDH through damaged cell membranes. For the preliminary screening, the promastigotes were incubated with 12 compounds at a single concentration of 5 µM for a period of 72 h, and the released LDH was estimated ( Supplementary Figure S1A ). Amphotericin B-treated promastigotes were taken as the positive control. […] Having observed the antileishmanial effect of Gly2 on growth and proliferation of promastigotes, we next investigated the cytotoxicity of Gly2 on mammalian cells (MDCK, J774.1A) through MTT (3-(4, 5-dimethylthiazolyl-2)-2, 5-diphenyltetrazolium bromide) cell viability assay ( Supplementary Figures S1B, C ). […] The CC50 values of Gly2 analog was in the micromolar range. The selectivity index (SI) for the compound was calculated as the ratio between cytotoxicity (CC50) and activity (IC50) against promastigotes ( Table 1 ).

[4] = test system: J774.A1 murine macrophage cells; test: MTT cell viability assay on macrophages; type: cell-based; conditions: MTT assay
Method: as §3, §1, §4

[5] = test system: L. donovani promastigotes; test: DCFDA estimation of reactive oxygen species in promastigotes; type: cell-based, Leishmania donovani; conditions: Gly2-treated promastigotes, 72 h
Method: The redox homeostasis of promastigotes was monitored both qualitatively and quantitively by 2',7'-dichlorodihydrofluorescein diacetate (DCFDA) (Life Technologies, USA) staining. The untreated and […]-treated promastigotes (1 × 10^6 cells/ml) were cultured for 72 h. Following incubation, the parasites were harvested, washed with PBS, and stained with H2DCFDA (20 μM) for 20 min at 37°C. Excess stain was removed by washing with PBS, and samples were resuspended in PBS (50 μl) followed by imaging. Fluorescence intensity was determined using an excitation filter at 485 nm and an emission filter at 535 nm using confocal microscope (Nikon Ti eclipse, USA). The samples were also analyzed through BD FACS diva ([Shivappagowdar et al., 2019]).

[6] = test system: L. donovani promastigotes; test: JC-1 mitochondrial membrane potential in promastigotes; type: cell-based, Leishmania donovani; conditions: treated promastigotes vs control, 24 h
Method: Mitochondrial membrane (Δψm) potential was examined using 5,6-dichloro-2-[3-(5,6-dichloro-1,3-diethyl-1,3-dihydro-2H-benzimidazol-2-ylidene)-1propenyl]-1,3-diethyl-,iodide (JC-1 dye) (Life Technologies, USA) as a probe. Treated and untreated groups were incubated for 24 h. Cells were washed with PBS and JC-1 labeled, and samples were analyzed through FACS diva (Beckton-Dickinson, Pharmingen). The approximate fluorescence excitation/emission maxima of 514/529 nm for monomeric form and 585/590 nm for J-aggregate form were used. The labeled cells were also allowed to adhere to glass slides for visualization under fluorescence microscope (Nikon Ti eclipse, USA) ([Shivappagowdar et al., 2019]).

CC(C)CCOC1O[C@H](CO)[C@@H](O)[C@H](O)[C@H]1O (stereo partly drawn) [Gly2]
IC50 [1]: 1.13 µM
IC50 [2]: 1.97 µM
CC50 [3]: 2900 µM
cytotoxicity in macrophage cells [4]: minimum level of cytotoxicity
% DCFDA+ parasites [5]: ~ 50%
mitochondrial uptake of JC-1 dye (ΔΨm) [6]: significantly decreased
